Laboratory results from US20100311726A1, “REDUCTION OF BETA-AMYLOID LEVELS BY TREATMENT WITH THE SMALL MOLECULE DIFFERENTIATION-INDUCING FACTOR” (priority 2007, published 2010).
Entries after “also recorded” stand apart in the source; their conditions may differ.

Key:
[1] = system: CHO cells stably expressing human wild type APP^751 (CHO-7W); test: Cell proliferation assay in APP-expressing CHO cells; type: cell-based, Chinese Hamster
Excerpt: (§1) For proliferation assays, 1×10^4 cells were deposited into 24-well plates and treated with vehicle (ethanol or DMSO) or with various amounts of DIF-1 or DIF-3 for a period of 4 days. Cells were harvested after each day by trypsin/EDTA treatment, stained with an equal volume of 0.05% Trypan blue and enumerated in triplicate twice using a haemocytometer. Dead cells are stained blue, but live cells with intact cell membranes are not coloured. Data represents the mean cell number±the standard deviation for at least 3 separate experiments.
The levels of secreted Aβ from CHO-7W cells stably overexpressing APP^751 and CHO-CAB cells that overexpress APP^751 and human BACE1 was quantified by ELISA and viewed by western blot using the monoclonal anti-APP antibody (6E10) that recognizes residues 1-17 of Aβ. […] Since DIF-1 exerts a cytostatic effect, the cell number was counted for all treatments upon removal of the conditioned media and used to normalize the levels of Aβ. […] The concentration of Aβ40 and Aβ42 was subsequently detected in triplicate using the β-Amyloid 1-40 or 1-42 Colorimetric ELISA kit (Biosource International, Inc.) according to the manufacturer's instructions.
Cells seeded on a 6-well plate were incubated with various concentrations of DIF-1. Cells were harvested by the trypsin/EDTA treatment at the times indicated and counted with a haemocytometer. […]

APP [2] = test: APP processing (mature APP, αCTF, βCTF) by western blot; type: cell-based, human
Method: Total protein was collected in RIPA buffer plus protease inhibitors on ice and briefly sonicated. They lysate was centrifuged at 14,000 rpm for 15 minutes. […] After washing, the blots were probed with a polyclonal HRP-tagged secondary Ab (1:5000) for 1 hour at room temperature then visualized.
A second possibility is that DIF-1 potentiates the activity of y-secretase and processing of αCTFs and βCTFs. To assess this latter possibility, we examined the effect of DIF-1 in the presence of DAPT, a potent γ-secretase inhibitor. Even numbers of CHO-7W cells were plated in 6-well dishes and allowed to grow overnight. The next day, the media was removed and replaced with control media (2 ml) or media containing DAPT, DIF-1 or DAPT and DIF-1. […] After washing, blots were probed with HRP-conjugated secondary antibodies (1:5000) for 1 hour at room temperature. […] It would appear that the mechanism of DIF-1 on APP metabolism is not likely to involve γ-secretase activity, but might impact on either BACE1 levels or activity.
To evaluate this probability, we treated CHO-CAB cells that overexpress human APP^751 and human BACE1 with 30 μM of DIF-1. More specifically, even numbers of CHO-CAB cells were plated in 6-well dishes and allowed to grow overnight. The next day, the media was removed and replaced with control media (2 ml) or media containing DAPT, DIF-1 or DAPT and DIF-1. […] After washing, blots were probed with HRP-conjugated secondary antibodies (1:5000) for 1 hour at room temperature. Each treatment is shown above the blot. […] It would appear that DIF-1 has a greater effect on APP maturation in CHO-CAB cells. Longer exposures reveal the presence of mature APP bands in DIF-1 treated cells.
Next dose-dependent effects of DIF-1 on APP processing were examined. Even numbers of CHO-CAB cells were plated in 6-well dishes and allowed to grow overnight. The next day, cells were treated overnight with either vehicle or increasing concentrations of DIF-1 (5-30 μM).

human APLP1 = test: APLP1 metabolism by western blot in CHO-A1 cells; type: cell-based; details: 30 μM DIF-1 or 250 nM DAPT, ~20 hours
Method: CHO cells that stably express human APLP1, which is a closely related family member of the APPs and known γ-secretase substrate (Eggert et al., 2004), were treated with 30 μM DIF-1, DAPT or DIF-1 plus DAPT (FIG. 7). Equal numbers of CHO-A1 cells stably expressing human APLP1 cells were plated in 6-well dishes and allowed to grow overnight. The next day, the media was removed and replaced with control media (2 ml) or media containing DAPT, DIF-1 or DAPT and DIF-1. […] After washing, blots were probed with HRP-conjugated secondary antibodies (1:5000) for 1 hour at room temperature.

[3] = system: notch intracellular domain (NICD); test: Notch intracellular domain (NICD) level; type: cell-based
CHO cells = test: Cell viability (trypan blue exclusion) and apoptosis (caspase-3); type: cell-based
Excerpt: as §1
Cells were harvested by the trypsin/EDTA treatment at the times indicated and counted with a haemocytometer.

CHO-CAB cells = test: Confocal fluorescence microscopy of CHO-CAB cells; type: cell-based, Chinese Hamster; details: 30 μM overnight
Method: CHO-CAB cells were grown on multi-well chamber slides and treated overnight with 30 μM DIF-1. The cells were fixed with 4% paraformaldehyde/PBS, permeabilized with 0.1% Triton X-100/PBS for 10 min and blocked with 5% goat serum/PBS. APP (rabbit C-terminal 8717), PDI (ER marker), GM130 (golgi marker), and ubiquitin were detected using their corresponding antibodies and Alexa Fluor-conjugated secondary antibodies. Nuclei were stained with Hoechst 33342 (Molecular Probes/Invitrogen). Confocal fluorescence images were obtained using an Olympus DSU/IX70 spinning disc confocal microscope and processed using IPLab software (Scanalytics/BD Biosciences).
Next, the effect of DIF-1 on APP trafficking and subcellular distribution was assessed. Cells were fixed with 4% paraformaldehyde/PBS, permeabilized with 0.1% Triton X-100/PBS and blocked with 5% goat serum/PBS. Confocal microscopy of CHO-CAB cells stained with APP antibodies together with the ER marker PDI or golgi marker GM130 confirmed that APP primarily co-localized with GM130 and PDI (FIG. 14A). […] ER structure upon DIF-1 treatment became highly vacuolated but to a varying degree within populations of cells.

APP [4] = test: APP processing (mature APP, αCTF, βCTF) by western blot; type: cell-based, human; details: CHO-CAB

CCCCCC(=O)c1c(O)c(Cl)c(OC)c(Cl)c1O [DIF-1, 1-[3,5-dichloro-2,6-dihydroxy-4-methoxyphenyl]-1-hexanone]
total cell number of vehicle treated cells higher than DIF-1 treated cells ([1]; 25 μM, after 20 hours, CHO-7W and CHO-CAB): ~10%
antiproliferative effect in CHO-7W compared to naïve cells (value in brackets, quantity not named) ([1]; CHO-7W): 30.6%±1.3
APP maturation and αCTF and βCTF levels (APP [2]; CHO-7W, 30 μM DIF-1 alone): significant decrease in APP maturation and both αCTF and βCTF production; also recorded: significant decreases in both αCTF and βCTF levels
αCTF and βCTF levels, simultaneous treatment with DAPT (APP [2]; CHO-7W, 30 μM DIF-1 plus 250 nM DAPT): increased, but not to the level seen with DAPT alone
effect on APP metabolism with BACE1 overexpression (APP [2]; CHO-CAB, 30 μM): did not repress the effects of DIF-1 on APP metabolism
dose dependence of αCTF and βCTF reduction (APP [2]; CHO-CAB, 5-30 μM): reduced both αCTFs and βCTFs in a dose-dependent manner
concentration required to have an effect on mature APP levels (APP [2]; CHO-CAB, 5-30 μM overnight): ~20 µM
APLP1 maturation, protein levels, CTF levels (human APLP1): no effect on APLP1 maturation, protein levels or CTF production
effect on notch intracellular domain (NICD) [3]: no effect
cell adhesion, cell shape, apoptosis (caspase-3 activation) (CHO cells): did not effect cell adhesion, cell shape or induce apoptosis
effect on cell viability (trypan blue exclusion) (CHO cells; any of the cell lines tested): no observable effect on cell viability
ER structure (PDI marker) (CHO-CAB cells): disruption in the structure of the ER
subcellular distribution of APP (CHO-CAB cells): enriched around the nuclear periphery
effect on lactacystin-induced CTF accumulation (APP [4]; 30 μM DIF-1 with 10 μM lactacystin): greatly reduced the effect of lactacystin
effect on ALLN-induced CTF accumulation (APP [4]; DIF-1 with 10 μM ALLN): reduced the effect of ALLN on APP processing
